Experimental data as given in ChEMBL document CHEMBL5576068, “Design, synthesis, and biological antitumor evaluation of tetrahydroisoquinoline derivatives” (Bioorg Med Chem Lett, 2024).

Key:
MDA-MB-231 [1] = assay: Cytotoxicity against human MDA-MB-231 cells assessed as cell inhibition rate at 40 uM by CCK8 assay relative to control; assay type: functional
A-375 [2] = assay: Cytotoxicity against human A-375 cells assessed as cell inhibition rate at 40 uM by CCK8 assay relative to control; assay type: functional
HepG2 [3] = assay: Cytotoxicity against human HepG2 cells assessed as cell inhibition rate at 40 uM by CCK8 assay relative to control; assay type: functional
HCT-116 [4] = assay: Cytotoxicity against human HCT-116 cells assessed as cell inhibition rate at 40 uM by CCK8 assay relative to control; assay type: functional
HepG2 [5] = assay: Cytotoxicity against human HepG2 cells measured for 48 hrs; assay type: functional, cell-based; details: HepG2, 48 h
HCT-116 [6] = assay: Cytotoxicity against human HCT-116 cells measured for 48 hrs; assay type: functional, cell-based; details: HCT-116, 48 h
MDA-MB-231 [7] = assay: Cytotoxicity against human MDA-MB-231 cells measured for 48 hrs; assay type: functional, cell-based; details: MDA-MB-231, 48 h
A-375 [8] = assay: Cytotoxicity against human A-375 cells measured for 48 hrs; assay type: functional, cell-based; details: A-375, 48 h

SMILES	inhibition at 40 µM (MDA-MB-231 [1]) [%]	inhibition at 40 µM (A-375 [2]) [%]	inhibition at 40 µM (HepG2 [3]) [%]	inhibition at 40 µM (HCT-116 [4]) [%]	IC50 (HepG2 [5]) [µM]	IC50 (HCT-116 [6]) [µM]	IC50 (MDA-MB-231 [7]) [µM]	IC50 (A-375 [8]) [µM]
COc1cc2c(cc1OC)CN(C)CC2	30.7	27.4	20.6	25.2	–	–	–	–
CN1CCc2cc3c(cc2C1)OCO3	14.5	22.5	26.8	18.2	–	–	–	–
COc1cc2c(cc1OCc1ccccc1)CN(C)CC2	30.2	14.7	16.3	32.9	–	–	–	–
COc1cc2c(cc1OCc1ccccc1)C[N+](C)(Cc1ccc(Oc3ccc(-c4ccc(C#N)cc4)cc3)nc1)CC2 (centres undefined)	–	–	–	–	3.8	7.5	> 20	9.7
COc1cc2c(cc1OCc1ccccc1)C[N+](C)(Cc1ccc([N+](=O)[O-])nc1)CC2 (centres undefined)	10.1	16.1	22.6	26.6	–	–	–	–
C[N+]1(Cc2ccc(Br)nc2)CCc2cc3c(cc2C1)OCO3 (centres undefined)	23.2	9.69	19.8	29.2	–	–	–	–
COc1cc2c(cc1OCc1ccccc1)C[N+](C)(Cc1ccc(Oc3ccc(Oc4ccccc4)cc3)nc1)CC2 (centres undefined)	–	–	–	–	12.6	11.6	12.6	7.6
COc1cc2c(cc1OCc1ccccc1)C[N+](C)(Cc1ccc(Oc3ccc(Oc4ccc(C(F)(F)F)cc4)cc3)nc1)CC2 (centres undefined)	–	–	–	–	4.1	4.1	9.8	6.1
CCCCC[C@H]1CC[C@H](c2ccc(Oc3ccc(C[N+]4(C)CCc5cc(OC)c(OCc6ccccc6)cc5C4)cn3)cc2)CC1 (some centres undefined)	–	–	–	–	11.6	9	11.4	8.7
COc1cc2c(cc1OCc1ccccc1)C[N+](C)(Cc1ccc(Oc3ccc(OC(C)C)cc3)nc1)CC2 (centres undefined)	–	–	–	–	9.67	19.3	> 20	13.5
COc1cc2c(cc1OCc1ccccc1)C[N+](C)(Cc1ccc(Nc3ccccc3[N+](=O)[O-])nc1)CC2 (centres undefined)	–	–	–	–	4.8	4.6	10	7.6
COc1cc2c(cc1OCc1ccccc1)C[N+](C)(Cc1ccc(Oc3ccc(C4CC4)cc3)nc1)CC2 (centres undefined)	–	–	–	–	19.2	> 20	12.5	15.7
CCCCN(CCCC)c1ccc(Oc2ccc(C[N+]3(C)CCc4cc(OC)c(OCc5ccccc5)cc4C3)cn2)cc1 (centres undefined)	–	–	–	–	10	10.5	> 20	10.3
COc1cc2c(cc1OCc1ccccc1)C[N+](C)(Cc1ccc(Oc3cc(Cl)ccc3Oc3ccc(Cl)cc3Cl)nc1)CC2 (centres undefined)	–	–	–	–	4.7	4.5	9.3	5.4
COc1cc2c(cc1OCc1ccccc1)C[N+](C)(Cc1ccc(Oc3ccc(/N=N/c4ccccc4)cc3)nc1)CC2 (centres undefined)	–	–	–	–	13.1	11.6	13.3	5.5
COc1cc2c(cc1OCc1ccccc1)C[N+](C)(Cc1cnc3ccccc3c1)CC2 (centres undefined)	7.43	13.9	6.8	8.29	–	–	–	–

SMILES	inhibition at 40 µM (MDA-MB-231 [1]) [%]	inhibition at 40 µM (A-375 [2]) [%]	inhibition at 40 µM (HepG2 [3]) [%]	inhibition at 40 µM (HCT-116 [4]) [%]	IC50 (HepG2 [5]) [µM]	IC50 (HCT-116 [6]) [µM]	IC50 (MDA-MB-231 [7]) [µM]	IC50 (A-375 [8]) [µM]
COc1cc2c(cc1OCc1ccccc1)C[N+](C)(Cc1ccc(Oc3ccc(SC(F)(F)F)cc3)nc1)CC2 (centres undefined)	–	–	–	–	14.6	13.4	15.3	11.6
COc1cc2c(cc1OCc1ccccc1)C[N+](C)(Cc1ccc(Br)nc1)CC2 (centres undefined)	17.4	22.2	27.3	20.7	–	–	–	–
COc1cc2c(cc1OCc1ccccc1)C[N+](C)(Cc1ccc(Oc3ccc(C45CC6CC(CC(C6)C4)C5)cc3)nc1)CC2 (centres undefined)	–	–	–	–	4.2	2.5	4.6	12.4
COc1cc2c(cc1OCc1ccccc1)C[N+](C)(Cc1ccccn1)CC2 (centres undefined)	9.61	13.7	18.9	11.6	–	–	–	–
COc1cc2c(c(OC)c1OC)CC[N+](C)(Cc1ccc(Br)nc1)C2 (centres undefined)	35.1	24.8	60.6	53.4	–	–	–	–
COc1cc2c(cc1OCc1ccccc1)C[N+](C)(Cc1ccc(Br)cn1)CC2 (centres undefined)	23.7	31.2	27.8	16	–	–	–	–
COc1cc2c(cc1OCc1ccccc1)C[N+](C)(Cc1ccc(Oc3ccc(C4CCC(=O)CC4)cc3)nc1)CC2 (centres undefined)	–	–	–	–	> 20	18.7	12.4	17.9
COc1cc2c(cc1OCc1ccccc1)C[N+](C)(Cc1ccc3ccccc3n1)CC2 (centres undefined)	2.75	13	7.43	3.2	–	–	–	–
COc1cc2c(cc1OCc1ccccc1)C[N+](C)(Cc1ccc(Oc3ccc(OCc4ccccc4)cc3)nc1)CC2 (centres undefined)	–	–	–	–	6.8	8.9	12.4	11.6
COc1cc2c(cc1O)C[N+](C)(Cc1ccc(Br)nc1)CC2 (centres undefined)	34.4	12.3	15	34.5	–	–	–	–
COc1cc2c(cc1OCc1ccccc1)C[N+](C)(Cc1ccc(Oc3cc(C(F)(F)F)ccc3F)nc1)CC2 (centres undefined)	–	–	–	–	12.4	18.6	17.3	12.5
COc1cc2c(c(OC)c1OC)CCN(C)C2	52	22.3	9.18	18.2	–	–	–	–
COc1cc2c(cc1OC)C[N+](C)(Cc1ccc(Br)nc1)CC2 (centres undefined)	30.5	41.1	19.8	18.4	–	–	–	–
COc1cc2c(cc1OCc1ccccc1)C[N+](C)(Cc1ccnc3ccccc13)CC2 (centres undefined)	8.29	9.33	11.7	12.1	–	–	–	–
COc1ccc2c(c1OC)C(=O)O[C@@H]2[C@H]1c2c(cc3c(c2OC)OCO3)CCN1C [NOSCAPINE]	–	–	–	–	120	154	120	180
